According to the NIST ThermoML archive (doi:10.1021/je060355j):

Experiments:
[1] = excess molar enthalpy (molar enthalpy of mixing); xn = mol fraction of the nth substance listed; settings: 101.32 kPa, Liquid
[2] = xn = mol fraction of the nth substance listed; settings: 101.32 kPa, Liquid

CCCOC=O [propyl methanoate] + CCCCCC
Settings	excess molar enthalpy [kJ/mol]	mass density [kg/m3]
[1], 291.15 K, x1 = 0.0969	0.492	–
[1], 291.15 K, x1 = 0.186	0.783	–
[1], 291.15 K, x1 = 0.2656	0.983	–
[1], 291.15 K, x1 = 0.3316	1.11	–
[1], 291.15 K, x1 = 0.3921	1.18	–
[1], 291.15 K, x1 = 0.4458	1.21	–
[1], 291.15 K, x1 = 0.4941	1.22	–
[1], 291.15 K, x1 = 0.5356	1.2	–
[1], 291.15 K, x1 = 0.5758	1.15	–
[1], 291.15 K, x1 = 0.6321	1.08	–
[1], 291.15 K, x1 = 0.6905	0.964	–
[1], 291.15 K, x1 = 0.7533	0.815	–
[1], 291.15 K, x1 = 0.8171	0.643	–
[1], 291.15 K, x1 = 0.885	0.415	–
[1], 291.15 K, x1 = 0.9453	0.192	–
[1], 318.15 K, x1 = 0.0848	0.473	–
[1], 318.15 K, x1 = 0.1889	0.846	–
[1], 318.15 K, x1 = 0.2934	1.12	–
[1], 318.15 K, x1 = 0.3854	1.28	–
[1], 318.15 K, x1 = 0.4624	1.34	–
[1], 318.15 K, x1 = 0.521	1.34	–
[1], 318.15 K, x1 = 0.5945	1.29	–
[1], 318.15 K, x1 = 0.6631	1.19	–
[1], 318.15 K, x1 = 0.7368	1.03	–
[1], 318.15 K, x1 = 0.8154	0.794	–
[1], 318.15 K, x1 = 0.8906	0.518	–
[1], 318.15 K, x1 = 0.9523	0.249	–
[2], 291.15 K, x1 = 0.0544	–	670.1
[2], 291.15 K, x1 = 0.0893	–	676
[2], 291.15 K, x1 = 0.1509	–	687.4
[2], 291.15 K, x1 = 0.2001	–	696.5
[2], 291.15 K, x1 = 0.248	–	705.8
[2], 291.15 K, x1 = 0.2521	–	706.6
[2], 291.15 K, x1 = 0.3979	–	737.6
[2], 291.15 K, x1 = 0.5017	–	761.8
[2], 291.15 K, x1 = 0.6122	–	789.6
[2], 291.15 K, x1 = 0.6985	–	813.1
[2], 291.15 K, x1 = 0.7473	–	827
[2], 291.15 K, x1 = 0.8013	–	842.8
[2], 291.15 K, x1 = 0.8499	–	857.8
[2], 291.15 K, x1 = 0.9057	–	875.5
[2], 291.15 K, x1 = 0.9568	–	892.9
[2], 291.15 K, x1 = 1	–	907.8
[2], 298.15 K, x1 = 0.0787	–	668.91
[2], 298.15 K, x1 = 0.1478	–	681.52
[2], 298.15 K, x1 = 0.2237	–	695.63
[2], 298.15 K, x1 = 0.2941	–	709.36
[2], 298.15 K, x1 = 0.3597	–	722.93
[2], 298.15 K, x1 = 0.4297	–	738.37
[2], 298.15 K, x1 = 0.4878	–	751.68
[2], 298.15 K, x1 = 0.5453	–	765.36
[2], 298.15 K, x1 = 0.6019	–	779.74
[2], 298.15 K, x1 = 0.6599	–	794.74
[2], 298.15 K, x1 = 0.7154	–	810
[2], 298.15 K, x1 = 0.765	–	824.15
[2], 298.15 K, x1 = 0.812	–	838.34
[2], 298.15 K, x1 = 0.8656	–	854.66
[2], 298.15 K, x1 = 0.921	–	872.18
[2], 298.15 K, x1 = 0.9567	–	884.05
[2], 298.15 K, x1 = 1	–	899.08
[2], 308.15 K, x1 = 0.0693	–	657.5
[2], 308.15 K, x1 = 0.1125	–	665.1
[2], 308.15 K, x1 = 0.1993	–	680.76
[2], 308.15 K, x1 = 0.3036	–	701.12
[2], 308.15 K, x1 = 0.3975	–	720.81
[2], 308.15 K, x1 = 0.5069	–	745.56
[2], 308.15 K, x1 = 0.5902	–	765.82
[2], 308.15 K, x1 = 0.7035	–	795.66
[2], 308.15 K, x1 = 0.8034	–	824.55
[2], 308.15 K, x1 = 0.9002	–	854.72
[2], 308.15 K, x1 = 0.9482	–	870.44
[2], 308.15 K, x1 = 1	–	888.36
[2], 318.15 K, x1 = 0.0796	–	648.93
[2], 318.15 K, x1 = 0.1547	–	661.76
[2], 318.15 K, x1 = 0.2278	–	674.93
[2], 318.15 K, x1 = 0.2909	–	687.08
[2], 318.15 K, x1 = 0.3611	–	701.46
[2], 318.15 K, x1 = 0.4273	–	715.75
[2], 318.15 K, x1 = 0.487	–	729.26
[2], 318.15 K, x1 = 0.5747	–	750.24
[2], 318.15 K, x1 = 0.6031	–	757.34
[2], 318.15 K, x1 = 0.6617	–	772.47
[2], 318.15 K, x1 = 0.7118	–	785.91
[2], 318.15 K, x1 = 0.7661	–	801.18
[2], 318.15 K, x1 = 0.8123	–	814.59
[2], 318.15 K, x1 = 0.8602	–	829.22
[2], 318.15 K, x1 = 0.9109	–	845.53
[2], 318.15 K, x1 = 0.9581	–	860.97
[2], 318.15 K, x1 = 1	–	875.32
